Source: the supplement of paper PMC13380429

Assays:
[1] = system: A549-ACE2 infected with SARS-CoV-2; assay: SARS-CoV-2 infection rate relative to DMSO; higher = more infection; details: 24 h
A549-ACE2 [2] = assay: drug-induced phospholipidosis relative to tamoxifen; higher = more phospholipidosis
[3] = system: A549-ACE2 infected with SARS-CoV-2; assay: cell count relative to DMSO; higher = less toxic; details: 24 h
HepG2 [4] = assay: drug sensitivity score (DSS) for viability; higher = more toxic; extreme values may be limits of the assay; details: 72 h
Vero E6 [5] = assay: as above; details: 72 h
Caco-2 [6] = assay: as above; details: 72 h
U2OS [7] = assay: as above; details: 72 h
Calu-3 [8] = assay: as above; details: 72 h
A549-ACE2 [9] = assay: phospholipidosis EC50; higher = less potent phospholipidosis inducer
Vero E6 [10] = assay: relative viability EC50 (midpoint between 100% and the lowest measured viability); higher = less toxic; details: 72 h
Caco-2 [11] = assay: as above; details: 72 h
U2OS [12] = assay: as above; details: 72 h
Calu-3 [13] = assay: as above; details: 72 h
HepG2 [14] = assay: cell viability relative to DMSO; higher = less toxic; details: 72 h
Vero E6 [15] = assay: as above; details: 72 h
Caco-2 [16] = assay: as above; details: 72 h
U2OS [17] = assay: as above; details: 72 h
Calu-3 [18] = assay: as above; details: 72 h
[19] = system: A549-ACE2 infected with SARS-CoV-2; assay: morphology score (similarity to uninfected cells); higher = more like uninfected cells; details: 24 h
HepG2 [20] = assay: relative viability EC50 (midpoint between 100% and the lowest measured viability); higher = less toxic; details: 72 h

c1ccc(-c2nn3c(c2-c2ccnc4cc(OCCN5CCOCC5)ccc24)CCC3)nc1
Details | SARS-CoV-2 infection rate [%] | cell count [%] | cell viability [%] | morphology score | phospholipidosis EC50 [µM]
A549-ACE2 [9], 24 h | – | – | – | – | 15.2
A549-ACE2 [9], 72 h | – | – | – | – | 12.7
Caco-2 [16], 1 nM | – | – | 94.1 | – | –
Caco-2 [16], 10 nM | – | – | 106 | – | –
Caco-2 [16], 100 nM | – | – | 95.8 | – | –
Caco-2 [16], 1000 nM | – | – | 100 | – | –
Caco-2 [16], 10000 nM | – | – | 94.6 | – | –
Calu-3 [18], 1 nM | – | – | 102 | – | –
Calu-3 [18], 10 nM | – | – | 86.3 | – | –
Calu-3 [18], 100 nM | – | – | 104 | – | –
Calu-3 [18], 1000 nM | – | – | 96 | – | –
Calu-3 [18], 10000 nM | – | – | 101 | – | –
HepG2 [14], 1 nM | – | – | 103 | – | –
HepG2 [14], 10 nM | – | – | 100 | – | –
HepG2 [14], 100 nM | – | – | 96.6 | – | –
HepG2 [14], 1000 nM | – | – | 95.7 | – | –
HepG2 [14], 10000 nM | – | – | 74.7 | – | –
U2OS [17], 1 nM | – | – | 95.4 | – | –
U2OS [17], 10 nM | – | – | 105 | – | –
U2OS [17], 100 nM | – | – | 91.6 | – | –
U2OS [17], 1000 nM | – | – | 90.4 | – | –
U2OS [17], 10000 nM | – | – | 76.5 | – | –
Vero E6 [15], 1 nM | – | – | 102 | – | –
Vero E6 [15], 10 nM | – | – | 99.8 | – | –
Vero E6 [15], 100 nM | – | – | 111 | – | –
Vero E6 [15], 1000 nM | – | – | 108 | – | –
Vero E6 [15], 10000 nM | – | – | 105 | – | –
[1], 0.3 µM | 82 | – | – | – | –
[1], 3 µM | 97 | – | – | – | –
[1], 10 µM | 108 | – | – | – | –
[1], 30 µM | 106 | – | – | – | –
[3], 0.3 µM | – | 108 | – | – | –
[3], 3 µM | – | 104 | – | – | –
[3], 10 µM | – | 96 | – | – | –
[3], 30 µM | – | 95 | – | – | –
[19], 0.3 µM | – | – | – | 0.43 | –
[19], 3 µM | – | – | – | 0.25 | –
[19], 10 µM | – | – | – | 0.09 | –
[19], 30 µM | – | – | – | -0.11 | –

drug-induced phospholipidosis [%], A549-ACE2 [2]
Details | 0.3 µM | 0.833333 µM | 3.33333 µM | 6.66667 µM | 10 µM | 30 µM
24 h | 7.41 | 15.4 | 31.7 | 44.4 | 57.5 | 78.6
48 h | 5.26 | 4.41 | 16.2 | 19.5 | 30.1 | 52.8
72 h | 2.76 | -1.59 | 7.52 | 15.3 | 29.5 | 58.6

Details | drug sensitivity score | relative viability EC50 [nM]
Caco-2 [6] | 0 | –
Caco-2 [11] | – | > 10000
Calu-3 [8] | 0 | –
Calu-3 [13] | – | > 10000
HepG2 [4] | 1.6 | –
U2OS [7] | 1.5 | –
U2OS [12] | – | > 10000
Vero E6 [5] | 0 | –
Vero E6 [10] | – | > 10000

O=Nc1ccc(O)c2ncccc12 [NSC-3852]
Details | SARS-CoV-2 infection rate, [1] [%] | cell count, [3] [%] | cell viability, Caco-2 [16] [%] | cell viability, HepG2 [14] [%] | cell viability, U2OS [17] [%] | cell viability, Vero E6 [15] [%] | morphology score, [19]
1 nM | – | – | 86.2 | 103 | 93.5 | 99.8 | –
10 nM | – | – | 101 | 89.6 | 99.5 | 102 | –
100 nM | – | – | 98.5 | 101 | 96.2 | 98.4 | –
0.3 µM | 106 | 97 | – | – | – | – | -0.15
1000 nM | – | – | 81.6 | 77.7 | 70.2 | 71.5 | –
3 µM | 96 | 76 | – | – | – | – | -0.09
10 µM | 48 | 63 | – | – | – | – | 0.41
10000 nM | – | – | 9.2 | 33 | 7.2 | 30.1 | –
30 µM | 14 | 41 | – | – | – | – | 0.64

drug-induced phospholipidosis [%], A549-ACE2 [2]
Details | 0.3 µM | 0.833333 µM | 3.33333 µM | 6.66667 µM | 10 µM
24 h | 0.34 | -0.2 | 2.51 | 14.6 | 10.9
48 h | 3.9 | 1.44 | – | – | –
72 h | 3.53 | 1.53 | – | – | –

Details | drug sensitivity score | relative viability EC50 [nM]
Caco-2 [6] | 8 | –
Caco-2 [11] | – | 1730
HepG2 [4] | 6.9 | –
HepG2 [20] | – | 1320
U2OS [7] | 9.3 | –
U2OS [12] | – | 1370
Vero E6 [5] | 7.5 | –
Vero E6 [10] | – | 1180

CC(C)C[C@H](NC(=O)[C@H](CCc1ccccc1)NC(=O)CN1CCOCC1)C(=O)N[C@@H](Cc1ccccc1)C(=O)N[C@@H](CC(C)C)C(=O)[C@@]1(C)CO1 [carfilzomib]
Details | SARS-CoV-2 infection rate, [1] [%] | cell count, [3] [%] | cell viability, Caco-2 [16] [%] | cell viability, Calu-3 [18] [%] | cell viability, HepG2 [14] [%] | cell viability, U2OS [17] [%] | cell viability, Vero E6 [15] [%] | morphology score, [19]
1 nM | – | – | 91.9 | 104 | 94.6 | 96 | 100 | –
10 nM | – | – | 50.8 | 91.2 | 68.8 | 76.7 | 97.6 | –
0.1 µM | 51 | 69 | – | – | – | – | – | 0.25
100 nM | – | – | 8.6 | 5.8 | 9 | 0.4 | 55.4 | –
0.3 µM | 24 | 49 | – | – | – | – | – | 0.29
1 µM | 22 | 34 | – | – | – | – | – | 0.25
1000 nM | – | – | 4.4 | 4.3 | -0.4 | -0.5 | 5.3 | –
3 µM | 20 | 26 | – | – | – | – | – | 0.18
10000 nM | – | – | 6 | 1.7 | -0.3 | -0.3 | 2.3 | –

Details | drug-induced phospholipidosis [%]
A549-ACE2 [2], 0.3 µM, 24 h | -37.6

Details | drug sensitivity score | relative viability EC50 [nM]
Caco-2 [6] | 34.7 | –
Caco-2 [11] | – | 9.3
Calu-3 [8] | 30.9 | –
Calu-3 [13] | – | 26.7
HepG2 [4] | 32.8 | –
HepG2 [20] | – | 18
U2OS [7] | 34.1 | –
U2OS [12] | – | 16.1
Vero E6 [5] | 22.6 | –
Vero E6 [10] | – | 112
